Measured values from ChEMBL document CHEMBL5465560, “Selectivity Literature for EUbOPEN Chemogenomic Library” (2024).
One block for each molecule: values may come before it.

Legend:
[1] = target: T1, Dual specificity mitogen-activated protein kinase kinase 3 (Homo sapiens) (UniProt P46734); test: Selectivity interaction (KinomeScan (DiscoverX)) EUB0000666a MAP2K3; conditions: at 10 µM
T1 sequence (whole entry): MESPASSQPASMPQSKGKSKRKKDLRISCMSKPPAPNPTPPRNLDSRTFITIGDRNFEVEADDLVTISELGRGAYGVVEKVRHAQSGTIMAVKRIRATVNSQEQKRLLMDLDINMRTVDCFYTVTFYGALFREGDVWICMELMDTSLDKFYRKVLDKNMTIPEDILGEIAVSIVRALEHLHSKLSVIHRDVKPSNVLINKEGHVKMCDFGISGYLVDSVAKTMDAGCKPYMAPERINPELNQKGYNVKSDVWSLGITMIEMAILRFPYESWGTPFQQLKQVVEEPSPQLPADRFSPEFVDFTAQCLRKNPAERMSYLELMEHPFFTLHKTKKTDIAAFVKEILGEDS

[2] = target: Death-associated protein kinase 1 (Homo sapiens, UniProt P53355); test: Selectivity interaction (KinomeScan (DiscoverX)) EUB0000666a DAPK1; conditions: at 10 µM
[3] = target: Ribosomal protein S6 kinase alpha-6 (Homo sapiens, UniProt Q9UK32); test: Selectivity interaction (Upstate Kinase Profiler service (Millipore)) EUB0000056c RPS6KA6; conditions: at 1 µM
[4] = target: Serine/threonine-protein kinase MRCK gamma (Homo sapiens) (UniProt Q6DT37); conditions: at 10 µM
[5] = target: Histone acetyltransferase KAT2B (Homo sapiens, UniProt Q92831); test: Selectivity interaction (Bromodomain panel (DSF asssay)) EUB0000270b KAT2B
[6] = target: T2, Serine/threonine-protein kinase TAO1 (Homo sapiens) (UniProt Q7L7X3); test: Selectivity interaction (KinomeScan (DiscoverX)) EUB0000092b TAOK1; conditions: at 10 µM
T2 sequence (whole entry): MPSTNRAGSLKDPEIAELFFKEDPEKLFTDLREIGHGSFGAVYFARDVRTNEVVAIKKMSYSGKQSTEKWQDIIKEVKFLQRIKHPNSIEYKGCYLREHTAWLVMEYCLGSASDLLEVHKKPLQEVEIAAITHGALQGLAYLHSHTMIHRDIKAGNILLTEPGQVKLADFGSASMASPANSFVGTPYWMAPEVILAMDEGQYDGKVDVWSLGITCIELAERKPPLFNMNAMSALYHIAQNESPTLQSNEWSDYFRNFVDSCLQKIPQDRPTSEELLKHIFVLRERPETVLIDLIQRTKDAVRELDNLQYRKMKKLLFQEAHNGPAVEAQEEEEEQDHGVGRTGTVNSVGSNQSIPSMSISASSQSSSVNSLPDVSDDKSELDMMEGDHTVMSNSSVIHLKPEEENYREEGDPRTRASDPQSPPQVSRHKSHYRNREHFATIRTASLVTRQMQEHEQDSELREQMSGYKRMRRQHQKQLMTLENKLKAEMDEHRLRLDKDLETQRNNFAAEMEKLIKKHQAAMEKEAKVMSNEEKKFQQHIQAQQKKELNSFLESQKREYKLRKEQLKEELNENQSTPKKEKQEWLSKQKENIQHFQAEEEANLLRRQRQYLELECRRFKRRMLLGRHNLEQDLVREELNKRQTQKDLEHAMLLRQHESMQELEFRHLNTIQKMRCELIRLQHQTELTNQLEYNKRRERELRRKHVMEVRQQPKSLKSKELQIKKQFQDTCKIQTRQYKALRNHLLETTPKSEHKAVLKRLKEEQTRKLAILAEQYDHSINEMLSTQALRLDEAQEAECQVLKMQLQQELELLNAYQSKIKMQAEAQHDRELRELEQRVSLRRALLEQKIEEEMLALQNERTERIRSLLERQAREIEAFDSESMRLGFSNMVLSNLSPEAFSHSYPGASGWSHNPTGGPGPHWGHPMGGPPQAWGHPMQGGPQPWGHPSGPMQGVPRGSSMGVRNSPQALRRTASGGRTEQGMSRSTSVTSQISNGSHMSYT

[7] = target: T3, Serine/threonine-protein kinase TAO2 (Homo sapiens) (UniProt Q9UL54); test: Selectivity interaction (KinomeScan (DiscoverX)) EUB0000618a TAOK2; conditions: at 10 µM
T3 sequence (whole entry): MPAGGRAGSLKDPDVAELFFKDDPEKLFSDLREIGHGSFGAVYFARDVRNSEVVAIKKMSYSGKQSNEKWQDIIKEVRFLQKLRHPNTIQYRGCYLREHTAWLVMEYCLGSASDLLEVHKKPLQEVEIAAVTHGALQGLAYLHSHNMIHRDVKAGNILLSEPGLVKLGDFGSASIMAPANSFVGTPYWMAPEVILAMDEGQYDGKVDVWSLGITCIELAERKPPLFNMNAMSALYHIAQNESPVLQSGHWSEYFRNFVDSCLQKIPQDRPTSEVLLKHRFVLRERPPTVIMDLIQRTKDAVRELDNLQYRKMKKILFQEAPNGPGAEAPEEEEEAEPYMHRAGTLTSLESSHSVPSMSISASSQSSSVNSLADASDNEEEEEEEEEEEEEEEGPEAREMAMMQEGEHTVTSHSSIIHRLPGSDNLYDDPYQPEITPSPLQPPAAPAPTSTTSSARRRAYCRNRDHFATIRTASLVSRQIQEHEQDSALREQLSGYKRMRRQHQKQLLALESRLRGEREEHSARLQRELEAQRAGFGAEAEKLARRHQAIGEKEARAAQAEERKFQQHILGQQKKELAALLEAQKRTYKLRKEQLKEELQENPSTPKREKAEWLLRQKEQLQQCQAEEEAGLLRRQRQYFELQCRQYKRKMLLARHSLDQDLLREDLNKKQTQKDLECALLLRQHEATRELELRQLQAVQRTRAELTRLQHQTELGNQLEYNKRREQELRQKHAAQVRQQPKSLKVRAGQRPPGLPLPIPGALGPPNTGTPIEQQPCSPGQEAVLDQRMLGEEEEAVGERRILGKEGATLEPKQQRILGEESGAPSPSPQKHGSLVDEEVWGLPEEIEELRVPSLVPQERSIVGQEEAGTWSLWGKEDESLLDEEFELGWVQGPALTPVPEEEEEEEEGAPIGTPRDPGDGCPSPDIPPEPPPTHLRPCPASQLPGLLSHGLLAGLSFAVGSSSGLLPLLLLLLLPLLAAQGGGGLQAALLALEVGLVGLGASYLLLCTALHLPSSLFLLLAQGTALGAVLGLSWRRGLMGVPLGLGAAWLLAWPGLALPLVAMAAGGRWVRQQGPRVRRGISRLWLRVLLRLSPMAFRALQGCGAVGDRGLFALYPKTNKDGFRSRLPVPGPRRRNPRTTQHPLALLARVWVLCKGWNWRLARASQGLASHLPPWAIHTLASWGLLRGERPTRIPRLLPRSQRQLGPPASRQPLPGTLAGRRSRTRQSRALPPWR

Sequence of Ribosomal protein S6 kinase alpha-6 (Q9UK32 whole entry): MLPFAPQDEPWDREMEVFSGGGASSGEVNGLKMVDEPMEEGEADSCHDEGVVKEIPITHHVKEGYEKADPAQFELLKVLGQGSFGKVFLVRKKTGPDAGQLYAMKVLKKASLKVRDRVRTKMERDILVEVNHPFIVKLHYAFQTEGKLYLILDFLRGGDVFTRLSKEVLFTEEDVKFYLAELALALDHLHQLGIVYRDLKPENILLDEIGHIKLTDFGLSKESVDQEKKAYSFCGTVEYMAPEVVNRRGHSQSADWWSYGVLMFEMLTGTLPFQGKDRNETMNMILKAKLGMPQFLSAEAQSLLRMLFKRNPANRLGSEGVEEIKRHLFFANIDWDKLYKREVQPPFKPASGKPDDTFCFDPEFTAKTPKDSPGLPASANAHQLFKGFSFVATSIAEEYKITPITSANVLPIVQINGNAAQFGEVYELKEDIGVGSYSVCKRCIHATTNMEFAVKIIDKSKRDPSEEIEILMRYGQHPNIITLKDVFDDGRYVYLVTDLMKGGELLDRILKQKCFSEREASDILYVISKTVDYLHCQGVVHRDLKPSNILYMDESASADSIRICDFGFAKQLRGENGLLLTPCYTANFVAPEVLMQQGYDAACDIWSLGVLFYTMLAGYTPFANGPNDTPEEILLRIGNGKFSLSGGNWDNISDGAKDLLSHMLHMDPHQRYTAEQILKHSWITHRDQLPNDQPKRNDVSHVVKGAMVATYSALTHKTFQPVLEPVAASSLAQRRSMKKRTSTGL
Sequence of Serine/threonine-protein kinase MRCK gamma (Homo sapiens) (Q6DT37 whole entry): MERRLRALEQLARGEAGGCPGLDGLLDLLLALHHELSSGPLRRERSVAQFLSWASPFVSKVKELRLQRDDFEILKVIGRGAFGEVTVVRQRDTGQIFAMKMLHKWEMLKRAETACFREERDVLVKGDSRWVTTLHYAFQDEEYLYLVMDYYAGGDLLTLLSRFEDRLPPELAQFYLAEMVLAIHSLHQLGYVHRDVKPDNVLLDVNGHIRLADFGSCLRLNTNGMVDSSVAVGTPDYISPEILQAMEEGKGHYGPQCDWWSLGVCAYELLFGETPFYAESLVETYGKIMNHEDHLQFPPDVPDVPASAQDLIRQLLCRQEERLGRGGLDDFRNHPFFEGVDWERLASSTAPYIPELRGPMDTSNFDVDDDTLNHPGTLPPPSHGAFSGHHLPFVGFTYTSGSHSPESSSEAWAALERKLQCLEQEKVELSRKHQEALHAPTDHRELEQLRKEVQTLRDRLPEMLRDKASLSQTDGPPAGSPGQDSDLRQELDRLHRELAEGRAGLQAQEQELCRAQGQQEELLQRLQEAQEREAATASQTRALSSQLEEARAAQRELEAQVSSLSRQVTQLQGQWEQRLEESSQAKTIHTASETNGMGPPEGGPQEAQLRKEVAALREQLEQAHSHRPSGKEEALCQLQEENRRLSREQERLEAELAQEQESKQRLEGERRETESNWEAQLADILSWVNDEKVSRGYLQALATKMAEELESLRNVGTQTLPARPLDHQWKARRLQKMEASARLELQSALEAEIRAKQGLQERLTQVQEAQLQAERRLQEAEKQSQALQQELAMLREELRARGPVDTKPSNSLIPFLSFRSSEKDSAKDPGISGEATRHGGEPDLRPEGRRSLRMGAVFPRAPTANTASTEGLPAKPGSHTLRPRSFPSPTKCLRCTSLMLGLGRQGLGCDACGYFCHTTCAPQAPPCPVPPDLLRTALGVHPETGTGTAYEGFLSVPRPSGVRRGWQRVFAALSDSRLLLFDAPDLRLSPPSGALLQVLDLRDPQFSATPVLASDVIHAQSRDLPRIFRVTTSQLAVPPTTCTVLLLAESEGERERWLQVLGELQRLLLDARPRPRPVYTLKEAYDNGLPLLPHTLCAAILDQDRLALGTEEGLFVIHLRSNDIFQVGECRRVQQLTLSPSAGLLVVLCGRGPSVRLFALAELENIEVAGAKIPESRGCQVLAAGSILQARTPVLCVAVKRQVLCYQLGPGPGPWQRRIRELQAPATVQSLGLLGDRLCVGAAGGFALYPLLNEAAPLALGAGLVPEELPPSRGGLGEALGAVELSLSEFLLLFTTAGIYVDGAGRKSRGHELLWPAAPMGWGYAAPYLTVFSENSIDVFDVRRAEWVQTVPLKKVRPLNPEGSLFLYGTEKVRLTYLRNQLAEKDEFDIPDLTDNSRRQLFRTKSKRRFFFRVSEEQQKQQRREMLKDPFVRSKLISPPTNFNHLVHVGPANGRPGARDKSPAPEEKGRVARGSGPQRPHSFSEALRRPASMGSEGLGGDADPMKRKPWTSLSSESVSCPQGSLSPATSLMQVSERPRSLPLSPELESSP
Sequence of Death-associated protein kinase 1 (P53355 whole entry, looked up): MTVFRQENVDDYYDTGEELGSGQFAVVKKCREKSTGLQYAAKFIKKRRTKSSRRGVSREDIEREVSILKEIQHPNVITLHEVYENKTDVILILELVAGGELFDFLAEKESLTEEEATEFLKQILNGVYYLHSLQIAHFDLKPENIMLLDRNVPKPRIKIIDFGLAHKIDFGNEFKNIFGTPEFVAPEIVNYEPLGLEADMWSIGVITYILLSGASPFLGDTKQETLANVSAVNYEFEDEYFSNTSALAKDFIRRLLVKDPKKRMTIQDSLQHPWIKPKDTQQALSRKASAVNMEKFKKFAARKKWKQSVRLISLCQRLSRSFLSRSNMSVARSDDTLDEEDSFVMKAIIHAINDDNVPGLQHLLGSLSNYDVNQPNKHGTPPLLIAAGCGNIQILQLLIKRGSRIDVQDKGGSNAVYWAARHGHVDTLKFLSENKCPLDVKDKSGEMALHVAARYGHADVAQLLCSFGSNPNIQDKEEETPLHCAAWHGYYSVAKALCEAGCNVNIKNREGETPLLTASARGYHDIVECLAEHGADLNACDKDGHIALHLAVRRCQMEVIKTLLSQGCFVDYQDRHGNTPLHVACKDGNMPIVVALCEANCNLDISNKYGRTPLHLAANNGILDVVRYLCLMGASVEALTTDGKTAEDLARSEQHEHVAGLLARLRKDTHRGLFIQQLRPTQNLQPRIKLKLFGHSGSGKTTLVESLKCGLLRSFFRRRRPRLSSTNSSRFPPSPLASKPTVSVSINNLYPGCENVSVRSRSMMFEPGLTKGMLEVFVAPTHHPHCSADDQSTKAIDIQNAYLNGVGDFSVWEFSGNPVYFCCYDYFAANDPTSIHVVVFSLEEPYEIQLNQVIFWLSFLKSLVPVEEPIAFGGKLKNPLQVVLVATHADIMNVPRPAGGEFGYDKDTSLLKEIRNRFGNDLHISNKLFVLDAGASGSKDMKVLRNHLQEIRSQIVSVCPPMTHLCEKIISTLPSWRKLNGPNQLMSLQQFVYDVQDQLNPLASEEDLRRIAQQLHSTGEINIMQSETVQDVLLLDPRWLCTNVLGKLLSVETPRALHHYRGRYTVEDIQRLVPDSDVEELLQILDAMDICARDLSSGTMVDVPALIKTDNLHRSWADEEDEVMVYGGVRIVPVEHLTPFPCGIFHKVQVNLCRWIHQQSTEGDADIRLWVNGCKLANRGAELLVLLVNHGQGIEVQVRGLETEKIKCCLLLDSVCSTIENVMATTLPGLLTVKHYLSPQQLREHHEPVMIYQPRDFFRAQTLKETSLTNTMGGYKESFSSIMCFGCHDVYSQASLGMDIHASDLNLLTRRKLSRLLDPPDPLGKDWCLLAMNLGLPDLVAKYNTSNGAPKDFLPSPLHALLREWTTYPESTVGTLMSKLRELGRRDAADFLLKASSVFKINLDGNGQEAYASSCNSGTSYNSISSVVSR
Sequence of Histone acetyltransferase KAT2B (Q92831 whole entry, looked up): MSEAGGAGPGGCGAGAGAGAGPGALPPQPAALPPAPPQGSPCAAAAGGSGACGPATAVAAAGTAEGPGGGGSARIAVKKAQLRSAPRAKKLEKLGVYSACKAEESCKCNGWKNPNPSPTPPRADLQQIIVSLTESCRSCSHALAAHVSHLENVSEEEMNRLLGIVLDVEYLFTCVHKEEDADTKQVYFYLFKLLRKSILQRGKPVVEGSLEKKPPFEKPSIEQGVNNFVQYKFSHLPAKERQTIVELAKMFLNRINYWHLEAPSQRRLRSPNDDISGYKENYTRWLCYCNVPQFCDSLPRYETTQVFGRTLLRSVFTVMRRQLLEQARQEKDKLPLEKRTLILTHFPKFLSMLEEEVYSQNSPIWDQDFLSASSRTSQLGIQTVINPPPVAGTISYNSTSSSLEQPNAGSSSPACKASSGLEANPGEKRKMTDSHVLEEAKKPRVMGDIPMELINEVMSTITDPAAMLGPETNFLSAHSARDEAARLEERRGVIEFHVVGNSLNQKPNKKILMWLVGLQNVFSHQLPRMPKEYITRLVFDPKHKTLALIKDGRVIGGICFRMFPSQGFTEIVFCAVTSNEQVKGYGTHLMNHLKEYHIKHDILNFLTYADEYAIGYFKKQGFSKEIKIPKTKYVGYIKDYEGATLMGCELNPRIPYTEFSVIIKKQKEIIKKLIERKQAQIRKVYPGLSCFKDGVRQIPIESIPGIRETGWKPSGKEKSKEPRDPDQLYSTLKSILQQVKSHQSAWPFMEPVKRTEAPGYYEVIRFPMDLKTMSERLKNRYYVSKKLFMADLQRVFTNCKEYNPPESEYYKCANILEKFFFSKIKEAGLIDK

Compound: O=C(NOC[C@H](O)CO)c1ccc(F)c(F)c1Nc1ccc(I)cc1F
- % of control [1]: 89%
- % of control [2]: 100%

- % of inhibition [3]: 38%
Compound: Cc1ccc(-c2ccc3c(ccc4sc5c(c43)NC[C@@H](C)NC5=O)n2)cn1

- % of control [4]: 100%
Compound: CCN(CC)CCCCNc1ncc2cc(-c3cc(OC)cc(OC)c3)c(NC(=O)NC(C)(C)C)nc2n1

- dTM [5]: -0.88 K
Compound: Cc1cc(CN)cc(C)c1-c1ncn(C)c1-c1cncn1C

Compound: CCC(=O)N1CCN(c2ccc(-n3c(=O)ccc4cnc5ccc(-c6cnc7ccccc7c6)cc5c43)cc2C(F)(F)F)CC1
- % of control [6]: 58%

Compound: O[C@H]1CC[C@H](Nc2ncc3nc(Nc4c(F)cc(F)cc4F)n([C@H]4CCOC4)c3n2)CC1
- % of control [7]: 93%
